The compounds below were run on Elongator complex protein 1 (ELP1, also referred to as IKBKAP) (assay: IKBKAP-HTRF assay (IKBKAP protein in lysates of FD patient-derived fibroblasts)). Conditions: 48 hours incubation, 7-point concentration curve.
Assay type: cell-based, human
How it was run: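 FD patient-derived fibroblasts (10,000/well) were treated 48 h at 37 °C with a 7-point, 3.16-fold compound series in triplicate, then lysed. IKBKAP was read by sandwich HTRF (donor/acceptor anti-IKAP antibodies, overnight at 4 °C, 665/620 nm). MFI is ΔF over vehicle ΔF; EC2x is the concentration giving twice the vehicle IKBKAP level.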

Structure (SMILES)	EC2x for IKBKAP protein expression (concentration producing two times the amount of IKBKAP protein vs DMSO vehicle control)	MFI (maximum fold increase in IKBKAP protein abundance relative to the vehicle control)
C[C@H](N)Cc1sc2c(NCc3cccs3)cc(Cl)nc2c1Cl [Compound 52, 2-[(2S)-2-aminopropyl]-3,5-dichloro-N-[(thiophen-2-yl)methyl]thieno[3,2-b]pyridin-7-amine]	***** (≤0.005 μM is indicated by five stars (*****))	***** (>4.9 is indicated by five stars (*****))
C[C@H](N)Cc1sc2c(NCc3cccs3)cc(Cl)nc2c1Br [Compound 53, 2-[(2S)-2-aminopropyl]-3-bromo-5-chloro-N-[(thiophen-2-yl)methyl]thieno[3,2-b]pyridin-7-amine]	***** (≤0.005 μM is indicated by five stars (*****))	***** (>4.9 is indicated by five stars (*****))
Cc1c(C[C@H](C)N)sc2c(NCc3cccs3)cc(C#N)nc12 [Compound 54, 2-[(2S)-2-aminopropyl]-3-methyl-7-{[(thiophen-2-yl)methyl]amino}thieno[3,2-b]pyridine-5-carbonitrile]	***** (≤0.005 μM is indicated by five stars (*****))	***** (>4.9 is indicated by five stars (*****))
Cc1c([C@H](C)N)sc2c(NCc3cccs3)cc(Cl)nc12 [Compound 55, 2-[(1S)-1-aminoethyl]-5-chloro-3-methyl-N-[(thiophen-2-yl)methyl]thieno[3,2-b]pyridin-7-amine]	**** (between >0.005 μM and ≤0.02 μM is indicated by four stars (****))	**** (between >3.9 and ≤4.9 is indicated by four stars (****))
Cc1c([C@@H](C)N)sc2c(NCc3cccs3)cc(Cl)nc12 [Compound 56, 2-[(1R)-1-aminoethyl]-5-chloro-3-methyl-N-[(thiophen-2-yl)methyl]thieno[3,2-b]pyridin-7-amine]	* (An EC2x>1 μM is indicated by one star (*))	* (An MFI≤1.9 is indicated by one star (*))
Cc1c(C[C@H](C)N)sc2c(NCc3nccs3)cc(Cl)nc12 [Compound 57, 2-[(2S)-2-aminopropyl]-5-chloro-3-methyl-N-[(1,3-thiazol-2-yl)methyl]thieno[3,2-b]pyridin-7-amine]	***** (≤0.005 μM is indicated by five stars (*****))	***** (>4.9 is indicated by five stars (*****))
Cc1c(C[C@@H](N)CO)sc2c(NCc3ccco3)cc(Cl)nc12 [Compound 58, (2R)-2-amino-3-(5-chloro-7-{[(furan-2-yl)methyl]amino}-3-methylthieno[3,2-b]pyridin-2-yl)propan-1-ol]	***** (≤0.005 μM is indicated by five stars (*****))	***** (>4.9 is indicated by five stars (*****))
Cc1c(C[C@H](N)CF)sc2c(NCc3ccco3)cc(Cl)nc12 [Compound 59, 2-[(2S)-2-amino-3-fluoropropyl]-5-chloro-N-[(furan-2-yl)methyl]-3-methylthieno[3,2-b]pyridin-7-amine]	*** (between >0.02 μM and ≤0.5 μM is indicated by three stars (***))	** (between >1.9 and ≤2.9 is indicated by two stars (**))
Cc1cc(NCc2nccs2)c2sc(C[C@H](C)N)c(Cl)c2n1 [Compound 60, 2-[(2S)-2-aminopropyl]-3-chloro-5-methyl-N-[(1,3-thiazol-2-yl)methyl]thieno[3,2-b]pyridin-7-amine]	**** (between >0.005 μM and ≤0.02 μM is indicated by four stars (****))	***** (>4.9 is indicated by five stars (*****))
Cc1c(C[C@@H](N)CC(C)C)sc2c(NCc3cccs3)cc(Cl)nc12 [Compound 61, 2-[(2S)-2-amino-4-methylpentyl]-5-chloro-3-methyl-N-[(thiophen-2-yl)methyl]thieno[3,2-b]pyridin-7-amine]	***** (≤0.005 μM is indicated by five stars (*****))	***** (>4.9 is indicated by five stars (*****))
CC(C)C[C@H](N)Cc1sc2c(NCc3nccs3)cc(Cl)nc2c1Br [Compound 62, 2-[(2S)-2-amino-4-methylpentyl]-3-bromo-5-chloro-N-[(1,3-thiazol-2-yl)methyl]thieno[3,2-b]pyridin-7-amine]	***** (≤0.005 μM is indicated by five stars (*****))	***** (>4.9 is indicated by five stars (*****))
N[C@H](CF)Cc1sc2c(NCc3cccs3)cc(Cl)nc2c1Br [Compound 63, 2-[(2S)-2-amino-3-fluoropropyl]-3-bromo-5-chloro-N-[(thiophen-2-yl)methyl]thieno[3,2-b]pyridin-7-amine]	*** (between >0.02 μM and ≤0.5 μM is indicated by three stars (***))	** (between >1.9 and ≤2.9 is indicated by two stars (**))
N[C@@H](COC(F)(F)F)Cc1sc2c(NCc3nccs3)cc(Cl)nc2c1Br [Compound 64, 2-[(2R)-2-amino-3-(trifluoromethoxy)propyl]-3-bromo-5-chloro-N-[(1,3-thiazol-2-yl)methyl]thieno[3,2-b]pyridin-7-amine]	**** (between >0.005 μM and ≤0.02 μM is indicated by four stars (****))	***** (>4.9 is indicated by five stars (*****))
OC[C@@H](Cc1sc2c(NCc3nccs3)cc(Cl)nc2c1Br)NC(F)(F)F [Compound 65, (2R)-3-(3-bromo-5-chloro-7-{[(1,3-thiazol-2-yl)methyl]amino}thieno[3,2-b]pyridin-2-yl)-2-[(trifluoromethyl)amino]propan-1-ol]	*** (between >0.02 μM and ≤0.5 μM is indicated by three stars (***))	***** (>4.9 is indicated by five stars (*****))
N[C@H](CF)Cc1sc2c(NCc3nccs3)cc(Cl)nc2c1Br [Compound 66, 2-[(2S)-2-amino-3-fluoropropyl]-3-bromo-5-chloro-N-[(1,3-thiazol-2-yl)methyl]thieno[3,2-b]pyridin-7-amine]	*** (between >0.02 μM and ≤0.5 μM is indicated by three stars (***))	* (An MFI≤1.9 is indicated by one star (*))
N[C@H](CF)Cc1sc2c(NCc3nccs3)cc(Cl)nc2c1Cl [Compound 67, 2-[(2S)-2-amino-3-fluoropropyl]-3,5-dichloro-N-[(1,3-thiazol-2-yl)methyl]thieno[3,2-b]pyridin-7-amine]	* (An EC2x>1 μM is indicated by one star (*))	* (An MFI≤1.9 is indicated by one star (*))
Cc1c(C[C@@H](N)CC(C)C)sc2c(NCc3nccs3)cc(Cl)nc12 [Compound 68, 2-[(2S)-2-amino-4-methylpentyl]-5-chloro-3-methyl-N-[(1,3-thiazol-2-yl)methyl]thieno[3,2-b]pyridin-7-amine]	**** (between >0.005 μM and ≤0.02 μM is indicated by four stars (****))	***** (>4.9 is indicated by five stars (*****))
N[C@@H](CF)Cc1sc2c(NCc3nccs3)cc(Cl)nc2c1Br [Compound 70, 2-[(2R)-2-amino-3-fluoropropyl]-3-bromo-5-chloro-N-[(1,3-thiazol-2-yl)methyl]thieno[3,2-b]pyridin-7-amine]	***** (≤0.005 μM is indicated by five stars (*****))	***** (>4.9 is indicated by five stars (*****))
N[C@@H](CO)Cc1sc2c(NCc3nccs3)cc(Cl)nc2c1Br [Compound 71, (2R)-2-amino-3-(3-bromo-5-chloro-7-{[(1,3-thiazol-2-yl)methyl]amino}thieno[3,2-b]pyridin-2-yl)propan-1-ol]	***** (≤0.005 μM is indicated by five stars (*****))	***** (>4.9 is indicated by five stars (*****))
C=C[C@H](N)Cc1sc2c(NCc3nccs3)cc(Cl)nc2c1Br [Compound 72, 2-[(2R)-2-aminobut-3-en-1-yl]-3-bromo-5-chloro-N-[(1,3-thiazol-2-yl)methyl]thieno[3,2-b]pyridin-7-amine]	***** (≤0.005 μM is indicated by five stars (*****))	***** (>4.9 is indicated by five stars (*****))
CC[C@H](N)Cc1sc2c(NCc3cccs3)cc(Cl)nc2c1Br [Compound 73, 2-[(2S)-2-aminobutyl]-3-bromo-5-chloro-N-[(thiophen-2-yl)methyl]thieno[3,2-b]pyridin-7-amine]	***** (≤0.005 μM is indicated by five stars (*****))	***** (>4.9 is indicated by five stars (*****))
